Literature values in patent US20040142388A1, “Method for detecting chronic dementia diseases, and corresponding VGF peptides and detection reagents” (priority 2001, published 2004).

Tested on: PC12 cell line
Settings: rat pheochomozytome cell line (PC12), stimulation with nerve growth factor

## NGF: important growth factor which regulates the differentiation of the peripheral and central nervous system
  increase in the concentration of VGF: 12- to 14 fold
